Results from the supplement of paper PMC11451515.

Experiments:
Conditions in all cases: 48 h
[1] = tested on: NOMO1; test: AUC of viability dose-response curve (% viability x log10 dose units); higher = less sensitive
How it was run: (§1)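 Over 48 h at 37°C, leukemia cells in 1536-well plates (500 or 1000 cells/well), adapted to each medium, received library compounds in DMSO at 11 threefold doses from 47 μM to 0.79 nM. CellTiter-Glo One luminescence, normalised per plate to DMSO and cell-free wells, was fitted by a four-parameter log-logistic function of log10 dose. The area under the curve was then integrated by trapezoidal rule, after scaling curves above full viability and removing those that failed quality control.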

[2] = tested on: SEM cells; test: as above
How it was run: as §1

[3] = tested on: P12-Ichikawa; test: as above
How it was run: as §1

[4] = tested on: NOMO1; test: cell viability relative to DMSO control; higher = less cytotoxic
How it was run: (§2)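 In 1536-well plates, 5 μl of leukemia cells were seeded per well: 500 cells/well for NOMO1 or SEM and 1000 cells/well for P12-Ichikawa. Each line had first been adapted for at least four passages in each medium. Library compounds in DMSO were pin-dosed at 11 threefold concentrations between 47 μM and 0.79 nM, and CellTiter-Glo One luminescence was read after 48 h at 37°C. Viability is a per-plate percentage relative to DMSO wells, with cell-free wells as background.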

[5] = tested on: SEM cells; test: as above
How it was run: as §2

[6] = tested on: P12-Ichikawa; test: as above
How it was run: as §2

NC[C@@H]1O[C@H](O[C@H]2[C@@H](O)[C@H](O[C@@H]3[C@@H](O)[C@H](N)C[C@H](N)[C@H]3O[C@H]3O[C@H](CN)[C@@H](O)[C@H](O)[C@H]3N)O[C@@H]2CO)[C@H](N)[C@@H](O)[C@@H]1O.O=S(=O)(O)O.O=S(=O)(O)O.O=S(=O)(O)O
AUC of viability dose-response curve
Conditions	[1]	[2]	[3]
HPLM + 10% dialyzed FBS	468	476	473
RPMI 5 mM glucose + 10% FBS	465	463	467
RPMI 5 mM glucose + 10% dialyzed FBS	428	458	461

cell viability [%]
Conditions	[4]	[5]	[6]
HPLM + 10% dialyzed FBS, 0.000781 µM	103	104	108
HPLM + 10% dialyzed FBS, 0.00234 µM	82.8	99.7	96.4
HPLM + 10% dialyzed FBS, 0.00702 µM	110	103	108
HPLM + 10% dialyzed FBS, 0.0211 µM	113	106	107
HPLM + 10% dialyzed FBS, 0.0632 µM	101	98.4	105
HPLM + 10% dialyzed FBS, 0.19 µM	110	99.4	107
HPLM + 10% dialyzed FBS, 0.569 µM	110	104	103
HPLM + 10% dialyzed FBS, 1.71 µM	106	91	103
HPLM + 10% dialyzed FBS, 5.12 µM	107	98.7	107
HPLM + 10% dialyzed FBS, 15.4 µM	88.5	105	99.5
HPLM + 10% dialyzed FBS, 46.1 µM	92.9	106	98.3
RPMI 5 mM glucose + 10% FBS, 0.000781 µM	95.3	92.9	102
RPMI 5 mM glucose + 10% FBS, 0.00234 µM	105	105	97.9
RPMI 5 mM glucose + 10% FBS, 0.00702 µM	99.2	110	104
RPMI 5 mM glucose + 10% FBS, 0.0211 µM	107	98.8	98
RPMI 5 mM glucose + 10% FBS, 0.0632 µM	111	69.1	103
RPMI 5 mM glucose + 10% FBS, 0.19 µM	107	101	97.6
RPMI 5 mM glucose + 10% FBS, 0.569 µM	96.8	101	101
RPMI 5 mM glucose + 10% FBS, 1.71 µM	108	102	98
RPMI 5 mM glucose + 10% FBS, 5.12 µM	87.2	104	100
RPMI 5 mM glucose + 10% FBS, 15.4 µM	98.5	94	96.4
RPMI 5 mM glucose + 10% FBS, 46.1 µM	94.9	105	96
RPMI 5 mM glucose + 10% dialyzed FBS, 0.000781 µM	92.2	109	105
RPMI 5 mM glucose + 10% dialyzed FBS, 0.00234 µM	90.5	115	100
RPMI 5 mM glucose + 10% dialyzed FBS, 0.00702 µM	86.8	116	105
RPMI 5 mM glucose + 10% dialyzed FBS, 0.0211 µM	96.1	113	103
RPMI 5 mM glucose + 10% dialyzed FBS, 0.0632 µM	96.5	90.7	96.8
RPMI 5 mM glucose + 10% dialyzed FBS, 0.19 µM	85.7	104	102
RPMI 5 mM glucose + 10% dialyzed FBS, 0.569 µM	92.8	115	102
RPMI 5 mM glucose + 10% dialyzed FBS, 1.71 µM	90.1	105	93.3
RPMI 5 mM glucose + 10% dialyzed FBS, 5.12 µM	89.9	108	94.6
RPMI 5 mM glucose + 10% dialyzed FBS, 15.4 µM	79.4	105	97.9
RPMI 5 mM glucose + 10% dialyzed FBS, 46.1 µM	83	100	93.4

CN1CCN(c2c(F)cc3c(=O)c(C(=O)O)cn(CCF)c3c2F)CC1
AUC of viability dose-response curve
Conditions	[1]	[2]	[3]
HPLM + 10% dialyzed FBS	466	439	459
RPMI 5 mM glucose + 10% FBS	447	458	457
RPMI 5 mM glucose + 10% dialyzed FBS	461	466	445

cell viability [%]
Conditions	[4]	[5]	[6]
HPLM + 10% dialyzed FBS, 0.000781 µM	97.8	84.2	99.8
HPLM + 10% dialyzed FBS, 0.00234 µM	107	85.3	101
HPLM + 10% dialyzed FBS, 0.00702 µM	114	103	106
HPLM + 10% dialyzed FBS, 0.0211 µM	119	118	112
HPLM + 10% dialyzed FBS, 0.0632 µM	101	108	112
HPLM + 10% dialyzed FBS, 0.19 µM	116	105	111
HPLM + 10% dialyzed FBS, 0.569 µM	106	100	111
HPLM + 10% dialyzed FBS, 1.71 µM	124	109	115
HPLM + 10% dialyzed FBS, 5.12 µM	105	109	121
HPLM + 10% dialyzed FBS, 15.4 µM	125	105	120
HPLM + 10% dialyzed FBS, 46.1 µM	96.9	110	108
RPMI 5 mM glucose + 10% FBS, 0.000781 µM	101	96.4	101
RPMI 5 mM glucose + 10% FBS, 0.00234 µM	103	96.4	104
RPMI 5 mM glucose + 10% FBS, 0.00702 µM	108	108	95.5
RPMI 5 mM glucose + 10% FBS, 0.0211 µM	109	105	108
RPMI 5 mM glucose + 10% FBS, 0.0632 µM	122	110	109
RPMI 5 mM glucose + 10% FBS, 0.19 µM	106	104	121
RPMI 5 mM glucose + 10% FBS, 0.569 µM	104	116	107
RPMI 5 mM glucose + 10% FBS, 1.71 µM	116	111	108
RPMI 5 mM glucose + 10% FBS, 5.12 µM	120	125	103
RPMI 5 mM glucose + 10% FBS, 15.4 µM	114	118	112
RPMI 5 mM glucose + 10% FBS, 46.1 µM	119	101	111
RPMI 5 mM glucose + 10% dialyzed FBS, 0.000781 µM	93.3	105	95.9
RPMI 5 mM glucose + 10% dialyzed FBS, 0.00234 µM	93.2	92.6	104
RPMI 5 mM glucose + 10% dialyzed FBS, 0.00702 µM	97.6	123	110
RPMI 5 mM glucose + 10% dialyzed FBS, 0.0211 µM	109	113	107
RPMI 5 mM glucose + 10% dialyzed FBS, 0.0632 µM	106	111	110
RPMI 5 mM glucose + 10% dialyzed FBS, 0.19 µM	108	112	107
RPMI 5 mM glucose + 10% dialyzed FBS, 0.569 µM	115	117	110
RPMI 5 mM glucose + 10% dialyzed FBS, 1.71 µM	111	129	108
RPMI 5 mM glucose + 10% dialyzed FBS, 5.12 µM	118	111	119
RPMI 5 mM glucose + 10% dialyzed FBS, 15.4 µM	102	114	115
RPMI 5 mM glucose + 10% dialyzed FBS, 46.1 µM	104	118	116

CCOC(=O)[C@@]1(CCCCCCOc2ccc(Cl)cc2)CO1
AUC of viability dose-response curve
Conditions	[1]	[2]	[3]
HPLM + 10% dialyzed FBS	458	428	448
RPMI 5 mM glucose + 10% FBS	444	413	452
RPMI 5 mM glucose + 10% dialyzed FBS	456	426	454

cell viability [%]
Conditions	[4]	[5]	[6]
HPLM + 10% dialyzed FBS, 0.000781 µM	–	95.4	113
HPLM + 10% dialyzed FBS, 0.00234 µM	–	103	108
HPLM + 10% dialyzed FBS, 0.00702 µM	–	111	117
HPLM + 10% dialyzed FBS, 0.0211 µM	–	112	114
HPLM + 10% dialyzed FBS, 0.0632 µM	–	113	112
HPLM + 10% dialyzed FBS, 0.19 µM	–	95.9	113
HPLM + 10% dialyzed FBS, 0.569 µM	–	115	111
HPLM + 10% dialyzed FBS, 1.71 µM	–	94.3	105
HPLM + 10% dialyzed FBS, 5.12 µM	–	95.2	105
HPLM + 10% dialyzed FBS, 15.4 µM	–	51.3	95.2
HPLM + 10% dialyzed FBS, 46.1 µM	–	23.9	7.68
RPMI 5 mM glucose + 10% FBS, 0.000781 µM	120	114	108
RPMI 5 mM glucose + 10% FBS, 0.00234 µM	118	119	115
RPMI 5 mM glucose + 10% FBS, 0.00702 µM	109	126	114
RPMI 5 mM glucose + 10% FBS, 0.0211 µM	107	120	117
RPMI 5 mM glucose + 10% FBS, 0.0632 µM	108	125	118
RPMI 5 mM glucose + 10% FBS, 0.19 µM	115	116	111
RPMI 5 mM glucose + 10% FBS, 0.569 µM	106	115	107
RPMI 5 mM glucose + 10% FBS, 1.71 µM	106	98.5	110
RPMI 5 mM glucose + 10% FBS, 5.12 µM	96.5	102	115
RPMI 5 mM glucose + 10% FBS, 15.4 µM	86.7	32.3	104
RPMI 5 mM glucose + 10% FBS, 46.1 µM	48.1	12.6	12.1
RPMI 5 mM glucose + 10% dialyzed FBS, 0.000781 µM	117	102	121
RPMI 5 mM glucose + 10% dialyzed FBS, 0.00234 µM	117	107	123
RPMI 5 mM glucose + 10% dialyzed FBS, 0.00702 µM	114	107	125
RPMI 5 mM glucose + 10% dialyzed FBS, 0.0211 µM	112	106	122
RPMI 5 mM glucose + 10% dialyzed FBS, 0.0632 µM	111	103	114
RPMI 5 mM glucose + 10% dialyzed FBS, 0.19 µM	111	107	111
RPMI 5 mM glucose + 10% dialyzed FBS, 0.569 µM	113	114	116
RPMI 5 mM glucose + 10% dialyzed FBS, 1.71 µM	108	102	107
RPMI 5 mM glucose + 10% dialyzed FBS, 5.12 µM	107	95	113
RPMI 5 mM glucose + 10% dialyzed FBS, 15.4 µM	96	50.4	107
RPMI 5 mM glucose + 10% dialyzed FBS, 46.1 µM	56.8	17	20.8
